Patent US20190136188A1, “4HPR AND ITS USE IN THE CULTURING OF HEMATOPOIETIC STEM CELLS” (UNIVERSITY HEALTH NETWORK, priority 2016, published 2019)
“Also recorded” adds a separate entry of the source.

How the values were obtained:
sorted HSC, MPP or GMP = assay: Colony forming assay (CFC) in methylcellulose; format: cell-based, human; settings: for cloning efficiency of the HSC / relative number of colonies relative to vehicle control: 35 nM UM171 or 0.5 uM SR1, 10 days
Experimental: (A) Dose response of varying [4HPR] in CB at day 3 post-treatment showing 2 uM 4HPR gives the relative half maximal number of viable cells compared to control. All experiments following are at this 4HPR concentration unless otherwise indicated. […] (C) LC/MS was used to profile the ceramide (Cer), dihydroceramide (dhCer), sphingosine (sph), dihydrosphingosine (dhSph), S1P and dihydro-S1P (dhS1P) levels in lin− CB cells cultured for 8 days with control or 4HPR (n=2). […] (D) HSC, MPP, or GMP were sorted into methylcellulose for CFC assays in the presence of control or 4HPR and colonies were blindly scored following 10-11 days for (D) colonies/100 cells and ((E) colony distribution are shown (n=7). (F) Flow cytometry for erythroid (GlyA+) and monocytic (CD14+) markers in live cells from pooled CFC colonies were scored (n=6). (F) Relative number of colonies from CFC assays comparing the effect of 4HPR or ATRA (n=3) on sorted HSC, MPP or GMP. […]
(A) Representative flow cytometry analysis of the primitive hierarchy within the CD34+ fraction of day 8 cultured lin− CB cells after the indicated treatments for CD90 and CD45RA, n=4. B) The distribution of cultured CD34+CD90+CD45RA− (cHSC), CD34+CD90−CD45RA− (cMPP), and […] for the indicated conditions at day 8 of ex vivo culture following CD34 enrichment. Statistical significance assayed through unpaired t-test relative to vehicle control (Ctrl). The relative number of colonies resulting from (C) HSC or (D) MPP grown in methylcellulose CFC assays in the presence of vehicle control (−) or the indicated combination of 2 uM 4HPR, or 35 nM UM171 or 0.5 uM SR1 at 10 days. Statistical significance is calculated via unpaired t-test relative to ctrl (black) or to the presence of absence of 4HPR treatment for UM171 or SR1.
However, the functional consequence of 4HPR treatment on human cord blood primitive cells is unknown. A dose titration of 4HPR was performed on lineage-depleted CB (lin-CB) cells and 2 uM was calculated to give half maximal cell viability at 3 days post-treatment compared to vehicle control (ctrl), a concentration reported in cell lines to antagonize DEGS1 enzymatic function, and used for all subsequent experiments unless otherwise indicated (FIG. 1A). […] Next, we utilized the colony forming assay (CFC) for in vitro progenitor function to determine if 4HPR treatment alters functional output from isolated populations of CB HSPC. […] This is unsurprising as retinoic acid signaling is a potent differentiation signal in hematopoietic cells. Thus, 4HPR inhibition of sphingolipid homeostasis selectively enhances cloning efficiency in human HSC.
Given the CD34 compartment where functional HSC should reside following ex vivo expansion is critical to blood production, we asked if there were immunophenotypic alterations following 4HPR treatment. StemRegenin-1 (SR1) or UM171 are two molecules whose action on CB has been reported to expand CD34+ cells dramatically and lead to increase reconstitution in xenotransplantation (Fares, et al Science, 2014: Boitano, Science, 2010). We sought to ask if limiting CD34+ expansion with 4HPR treatment is synergistic with these known agonists of CB ex vivo expansion. Lin− CB were cultured with these 3 small molecules alone or in combination for 8 days and the CD34 compartment was isolated and analyzed by flow cytometry further with CD90 and CD45RA to look at immunophenotypic cultured HSC (cHSC), MPP (cMPP) and committed progenitors (cProg). These populations were sorted from lin-CB at […] following expansion and transplanted into NSG mice for 16 weeks to ascertain that cProg cells are committed progenitors, while cHSC and cMPP retain multipotency following culture (FIG. 8A, B). […]

sorted HSC and MPP = assay: 8 day ex vivo expansion of sorted HSC and MPP, CD34+ compartment by flow cytometry; format: cell-based, human; settings: D8 after ex vivo expansion
Excerpt: B) Lymphoid and C) myeloid engraftment from (A) at 16 weeks post-transplantion. […] F) Flow cytometry plots showing the CD34+ population from 8 day cultured HSC.
Given the CD34 compartment where functional HSC should reside following ex vivo expansion is critical to blood production, we asked if there were immunophenotypic alterations following 4HPR treatment. StemRegenin-1 (SR1) or UM171 are two molecules whose action on CB has been reported to expand CD34+ cells dramatically and lead to increase reconstitution in xenotransplantation (Fares, et al Science, 2014: Boitano, Science, 2010). We sought to ask if limiting CD34+ expansion with 4HPR treatment is synergistic with these known agonists of CB ex vivo expansion. Lin− CB were cultured with these 3 small molecules alone or in combination for 8 days and the CD34 compartment was isolated and analyzed by flow cytometry further with CD90 and CD45RA to look at immunophenotypic cultured HSC (cHSC), MPP (cMPP) and committed progenitors (cProg). […] To further elucidate the specific action of 4HPR on HSC over MPP and compare this to UM171 and SR1, sorted HSC and MPP were put into ex vivo expansion conditions for 8 days with the same treatments as in FIG. 7A, B and their growth and CD34+ compartment were monitored by flow cytometry (FIG. 8D-F). […]

## Cn1nnc(-c2ccc3c(c2)[nH]c2nc(Cc4ccccc4)nc(N[C@H]4CC[C@H](N)CC4)c23)n1 [UM171, (1r,4r)-N1-(2-benzyl-7-(2-methyl-2H-tetrazol-5-yl)-9H-pyrimido[4,5-b]indol-4-yl)cyclohexane-1,4-diamine]
Sorted HSC, MPP or GMP
  cloning efficiency of the HSC: both decreased cloning efficiency of the HSC
  relative number of colonies relative to vehicle control: Neither UM171 nor SR1 altered relative number of colonies
Sorted HSC and MPP
  primitive CD34+ cells from sorted HSC and MPP: promote CD34+ expansion more from MPP than HSC; also recorded: dramatically increases primitive CD34+ from both HSC and MPP

## CC(C)n1cnc2c(NCCc3ccc(O)cc3)nc(-c3csc4ccccc34)nc21 [SR1, StemRegenin-1]
Sorted HSC, MPP or GMP
  cloning efficiency of the HSC: both decreased cloning efficiency of the HSC
  relative number of colonies relative to vehicle control: Neither UM171 nor SR1 altered relative number of colonies
Sorted HSC and MPP
  primitive CD34+ cells from sorted HSC and MPP: promote CD34+ expansion more from MPP than HSC; also recorded: occurs primarily in sorted MPP, not HSC

## CC1=C(/C=C/C(C)=C/C=C/C(C)=C/C(=O)O)C(C)(C)CCC1 [ATRA, all-trans retinoic acid]
Sorted HSC, MPP or GMP; ATRA treatment, HSC, MPP, GMP
  colony output: decreases colony output from all HSPC populations
